Two molecules from ChEMBL document CHEMBL1131431, “Enantiospecific semisynthesis of (+)-almuheptolide-A, a novel natural heptolide inhibitor of the mammalian mitochondrial respiratory chain” (J Med Chem, 1998) can be followed below.

For this test, the target named is Mitochondrial complex I; NADH oxidoreductase (Bos taurus, UniProt P25708+P52505). Put plainly: Compound was tested for NADH oxidase activity in bovine heart submitochondrial particles. The test is classed as protein-complex assay.
Sequence of Mitochondrial complex I; NADH oxidoreductase (P25708 21-464 limits assumed, other chains not shown): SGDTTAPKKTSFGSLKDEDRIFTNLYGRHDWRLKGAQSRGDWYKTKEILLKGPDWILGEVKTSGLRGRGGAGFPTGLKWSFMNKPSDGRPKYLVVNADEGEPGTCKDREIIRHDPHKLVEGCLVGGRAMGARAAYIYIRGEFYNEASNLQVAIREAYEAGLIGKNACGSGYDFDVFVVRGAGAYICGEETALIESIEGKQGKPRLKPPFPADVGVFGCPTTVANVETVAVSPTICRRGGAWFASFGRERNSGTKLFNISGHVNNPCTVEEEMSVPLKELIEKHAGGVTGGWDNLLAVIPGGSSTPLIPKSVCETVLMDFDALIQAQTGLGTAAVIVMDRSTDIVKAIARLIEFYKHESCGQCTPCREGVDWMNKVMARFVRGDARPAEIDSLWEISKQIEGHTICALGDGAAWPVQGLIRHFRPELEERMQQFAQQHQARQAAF

As for `CCO[C@H]1[C@@H](OC(C)=O)[C@H](OC(C)=O)[C@@H](c2ccccc2)OC(=O)C[C@H]1OCC`, the IC50 was 3.9 µM.

With `CCO[C@H]1[C@@H](O)[C@H](O)[C@@H](c2ccccc2)OC(=O)C[C@H]1OCC`, the IC50 came out at 4.4 µM.
